Assay results published in US20250270202A1, “SUBSTITUTED 4-AMINOISOINDOLINE COMPOUND, PREPARATION METHOD THEREFOR, PHARMACEUTICAL COMPOSITION THEREOF, AND USE THEREOF” (SHANGHAI INSTITUTE OF MATERIA MEDICA, CHINESE ACADEMY OF …, priority 2022, published 2025).
Like-named read-outs stand apart in the source and are kept apart here.

Tests used:
Type in all cases: cell-based
MV-4-11 cells = assay: Inhibition of MV-4-11 cell proliferation (MTS, 7 days); conditions: Homo sapiens
Protocol: MV-4-11 cells were cultured in IMDM with 10% fetal bovine serum, collected, and diluted to the appropriate cell concentration for a 7-day treatment period. A 96-well plate was used, and 180 μL of cell suspension was added to each well, resulting in a cell count of 2,000 per well. For the control wells, 20 μL of DMSO at a final concentration of 0.2% was added. The compounds were diluted from a 10 mM stock solution in a five-fold gradient, and 20 μL was added to the compound wells (with a final DMSO concentration of 0.2%). The cells were incubated in a 37° C., 5% CO2 incubator for 7 days. After preparing the reaction solution using the MTS reagent kit (Promega, G5430), 20 μL was added to each well, and the cells were incubated in the incubator for 3-4 hours. The absorbance at 490 nm was measured using a microplate reader, with the absorbance at 690 nm as the background value. The final data was calculated as OD490-OD690. The inhibition rate of the compounds was calculated using the formula: […]
The IC50 values for proliferation inhibition were calculated using GraphPad Prism 5.0. The experiments were repeated three times, with three parallel experiments for each, and the mean and standard deviation were calculated.
The cell activity test results are shown in Table 3: A indicates IC50<1 μM, B indicates 1 µM≤IC50≤20 μM, and C indicates IC50>20 μM.

Mino cells = assay: Inhibition of cell proliferation of Mino cells (MTS, 3 days); conditions: Homo sapiens, MINO
Protocol: Mino cells were cultured with RPMI-1640 medium supplemented with 15% fetal bovine serum, and collected. The cell concentration was diluted according to a 3-day treatment period, and 90 μL of the cell suspension was added to each well of a 96-well plate, resulting in 8000 cells per well. For control wells, 10 μL of DMSO at a final concentration of 0.2% was added. The compounds were diluted in a 5-fold gradient from a 10 mM stock solution, and 10 μL of each compound solution was added to the experimental wells (with a final DMSO concentration of 0.2%). The cells were incubated in a 37° C., 5% CO2 incubator for 3 days. After preparing the reaction mixture using the MTS reagent kit (Promega, G5430), 20 μL was added to each well, and the cells were incubated for 3-4 hours at 37° C., 5% CO2.
The absorbance at 490 nm was read using a microplate reader, with the absorbance at 690 nm used as the background. The final raw data was calculated as OD490-OD690. The inhibition rate of the compounds was calculated using the formula: Inhibition rate=(OD DMSO−OD compound)/(OD DMSO−OD blank)×100%. The IC50 values for cell proliferation inhibition of the compounds were fitted using GraphPad Prism 5.0. The experiment was repeated three times, with the average and standard deviation calculated from three parallel experiments each time.

MM.1S cells = assay: Effect of the compound on MM.1S cell proliferation (MTS, 7 days); conditions: Homo sapiens, MM1.S
Protocol: MM.1S cells were cultured in 1640 medium supplemented with 10% fetal bovine serum, then collected and diluted to the desired cell concentration after 7 days of treatment. A total of 180 μL of cell suspension was added to each well in a 96-well cell plate, ensuring 20,000 cells per well. For the control group, 20 μL of 0.2% DMSO was added to each well. Compounds were diluted in a 5-step gradient from a 10 mM stock solution, and 20 μL of each dilution was added to the compound-containing wells (with a final DMSO concentration of 0.2%). The cells were incubated in a 37° C., 5% CO2 incubator for 7 days. Afterward, 20 μL of the MTS reagent (Promega, G5430) was added to each well, followed by incubation for 3-4 hours in a 37° C., 5% CO2 incubator. Absorbance at 490 nm was measured using a microplate reader, with 690 nm absorbance as the background. The final raw data was calculated as OD490-OD690. The compound inhibition rate was calculated using the formula: […]
The IC50 for the compound's proliferative inhibition was fitted using GraphPad Prism 5.0. The experiment was repeated three times, and the average and standard deviation were calculated using three parallel experiments per trial.

[1] = MV4-11, 168 h, 7 days, MTS, Table 3, read-out: MV-4-11 Cells Inhibition Activity IC50
[2] = 72 h, 3 days, MTS, Table 2, read-out: Mino Cells Inhibition Activity IC50
[3] = 168 h, 7 days, MTS, Table 1, read-out: MM.1S Cells Inhibition Activity IC50
[4] = MV4-11, positive compounds, read-out: IC50 in MV-4-11 acute leukemia cells

| SMILES | IC50 (MV-4-11 cells; [1]) | IC50 (Mino cells; [2]) | IC50 (MM.1S cells; [3]) | IC50 (MV-4-11 cells; MV4-11, Table 4, values in nM, read-out: Inhibitory Activity of Compounds on Cell Proliferation MV-4-11 IC50) | IC50 (Mino cells; Table 4, read-out: Inhibitory Activity of Compounds on Cell Proliferation Mino IC50) | IC50 (MM.1S cells; Table 4, read-out: Inhibitory Activity of Compounds on Cell Proliferation MM.1S IC50) | IC50 (MV-4-11 cells; [4]) |
| --- | --- | --- | --- | --- | --- | --- | --- |
| O=C1CCC(N2C(=O)c3cccc(NCc4cnc(-c5ccc(O[C@@H]6CCOC6)cc5)o4)c3C2=O)C(=O)N1 (stereo partly drawn) [Example 54] | < 1000 nM | < 0.06 µM | < 0.015 µM |  |  |  |  |
| O=C1CCC(N2C(=O)c3cccc(NCc4ncc(-c5cccc(Cl)c5)o4)c3C2=O)C(=O)N1 (stereo not drawn) [Example 65, 4-(((5-(3-Chlorophenyl)oxazol-2-yl)methyl)amino)-2-(2,6-Dioxopiperidin-3-yl)isoindolin-1,3-dione] | < 1000 nM | > 0.12 µM | 0.03 to 0.15 µM |  |  |  |  |
| COc1ccc(-c2ncc(CNc3cccc4c3C(=O)N(C3CCC(=O)NC3=O)C4=O)s2)c(OC)c1 (stereo not drawn) [Example 36] | < 1000 nM | > 0.12 µM | 0.015 to 0.03 µM |  |  |  |  |
| COCCOc1ccc(-c2ncc(CNc3cccc4c3C(=O)N(C3CCC(=O)NC3=O)C4=O)s2)cc1 (stereo not drawn) [Example 104] | < 1000 nM | > 0.12 µM | 0.015 to 0.03 µM |  |  |  |  |
| Cc1cccc(-c2ncc(CNc3cccc4c3C(=O)N(C3CCC(=O)NC3=O)C4=O)o2)c1 (stereo not drawn) [Example 20] | < 1000 nM | < 0.06 µM | < 0.015 µM |  |  |  |  |
| O=C1CCC(N2C(=O)c3cccc(NCc4cnc(-c5cccc(Cl)c5)s4)c3C2=O)C(=O)N1 (stereo not drawn) [Example 68, 4-(((2-(3-Chlorophenyl)thiazol-5-yl)methyl)amino)-2-(2,6-Dioxopiperidin-3-yl)isoindolin-1,3-dione] | < 1000 nM | > 0.12 µM |  |  |  |  |  |
| Cc1ccc(-c2ncc(CNc3cccc4c3C(=O)N(C3CCC(=O)NC3=O)C4=O)o2)cc1 (stereo not drawn) [Example 19] | < 1000 nM | < 0.06 µM | < 0.015 µM |  |  |  |  |
| O=C1CCC(N2C(=O)c3cccc(NCc4cnc(-c5ccc(Cl)c(Cl)c5)o4)c3C2=O)C(=O)N1 (stereo not drawn) [Example 73, 4-(((2-(3,4-Dichlorophenyl)oxazol-5-yl)methyl)amino)-2-(2,6-Dioxopiperidin-3-yl)isoindolin-1,3-dione] | < 1000 nM | > 0.12 µM | 0.015 to 0.03 µM |  |  |  |  |
| O=C1CCC(N2Cc3c(CCc4cnc(-c5ccc(OC(F)(F)F)cc5)o4)cccc3C2=O)C(=O)N1 (stereo not drawn) [Prior Art Disclosed Compound-2, reference compound] |  |  |  | > 20000 nM | 0.8 µM | 0.073 µM |  |
| O=C1CCC(N2C(=O)c3cccc(NCc4cnc(-c5ccc(OCCO)cc5)o4)c3C2=O)C(=O)N1 (stereo not drawn) [Example 50] | < 1000 nM | < 0.06 µM | < 0.015 µM |  |  |  |  |
| O=C1CCC(N2C(=O)c3cccc(NCc4cnc(-c5ccc(OC6COC6)cc5)o4)c3C2=O)C(=O)N1 (stereo not drawn) [Example 49] | < 1000 nM | < 0.06 µM | 0.015 to 0.03 µM |  |  |  |  |
| O=C1CCC(N2C(=O)c3cccc(NCc4cnc([C@H]5CC[C@@H](Cc6ccc(F)cc6)CC5)o4)c3C2=O)C(=O)N1 (stereo partly drawn) [Example 105, 2-(2,6-Dioxopiperidine-3-yl)-4-(((2-((1S,4S)-4-(4-Fluorobenzyl)cyclohexyl)oxazol-5-yl)methyl)amino)isoindoline-1,3-dione] | 1000 to 20000 nM | > 0.12 µM | > 0.15 µM |  |  |  |  |
| O=C1CCC(N2C(=O)c3cccc(NCc4cnc(-c5ccc(OC6CCOCC6)cc5)o4)c3C2=O)C(=O)N1 (stereo not drawn) [Example 53] | < 1000 nM | < 0.06 µM | < 0.015 µM |  |  |  |  |
| CC(C)(C)C(=O)OCN1C(=O)CCC(N2C(=O)c3cccc(NCc4cnc(-c5ccc(Cl)cc5)o4)c3C2=O)C1=O (stereo not drawn) [Example 40, (3-(4-(((2-(4-Chlorophenyl)-5-oxazolyl)methyl)amino)-1,3-dioxoisoindol-2-yl)-2,6-dioxopiperidin-1-yl)methyl Neopentyl Ester] | < 1000 nM | > 0.12 µM | 0.03 to 0.15 µM |  |  |  |  |
| O=C1CCC(N2C(=O)c3cccc(NCc4cnc(-c5ccc(Cl)cc5Cl)o4)c3C2=O)C(=O)N1 (stereo not drawn) [Example 76, 4-(((2-(2,4-Dichlorophenyl)oxazol-5-yl)methyl)amino)-2-(2,6-Dioxopiperidin-3-yl)isoindolin-1,3-dione] | < 1000 nM | > 0.12 µM | 0.03 to 0.15 µM |  |  |  |  |
| O=C1CCC(N2Cc3c(OCc4ccc(CN5CCOCC5)cc4)cccc3C2=O)C(=O)N1 (stereo not drawn) [CC-220, reference compound] | > 20000 nM | 0.06 to 0.12 µM | < 0.015 µM |  |  |  | > 20000 nM |
| COCCOc1ccc(-c2ncc(CNc3cccc4c3C(=O)N(C3CCC(=O)NC3=O)C4=O)o2)cc1 (stereo not drawn) [Example 52] | < 1000 nM | < 0.06 µM | < 0.015 µM |  |  |  |  |
| COc1cccc(-c2ncc(CNc3cccc4c3C(=O)N(C3CCC(=O)NC3=O)C4=O)o2)c1 (stereo not drawn) [Example 17] | 1000 to 20000 nM | 0.06 to 0.12 µM | < 0.015 µM |  |  |  |  |
| O=C1CCC(N2C(=O)c3cccc(NCc4cnc([C@H]5CC[C@H](Cc6ccc(F)cc6)CC5)o4)c3C2=O)C(=O)N1 (stereo partly drawn) [Example 106, 2-(2,6-Dioxopiperidine-3-yl)-4-(((2-((1R,4R)-4-(4-Fluorobenzyl)cyclohexyl)oxazol-5-yl)methyl)amino)isoindoline-1,3-dione] | < 1000 nM | > 0.12 µM | 0.03 to 0.15 µM |  |  |  |  |
| O=C1CCC(N2C(=O)c3cccc(NCc4cnc(-c5cccc(Cl)c5)o4)c3C2=O)C(=O)N1 (stereo not drawn) [Example 63, 4-(((2-(3-Chlorophenyl)oxazol-5-yl)methyl)amino)-2-(2,6-Dioxopiperidin-3-yl)isoindolin-1,3-dione] | < 1000 nM | > 0.12 µM | 0.015 to 0.03 µM |  |  |  |  |
| O=C1CCC(N2C(=O)c3cccc(NCc4cnc(C5CCN(C(=O)c6ccc(OC(F)(F)F)cc6)CC5)o4)c3C2=O)C(=O)N1 (stereo not drawn) [Example 7] | 1000 to 20000 nM | > 0.12 µM | 0.015 to 0.03 µM |  |  |  |  |
| O=C1CCC(N2C(=O)c3cccc(NCc4cnc(C5CCN(C(=O)c6ccc(Cl)cc6Cl)CC5)o4)c3C2=O)C(=O)N1 (stereo not drawn) [Example 8] | < 1000 nM | 0.06 to 0.12 µM | 0.015 to 0.03 µM |  |  |  |  |
| O=C1CCC(N2C(=O)c3cccc(NCc4cnc(-c5ccccc5OC(F)(F)F)o4)c3C2=O)C(=O)N1 (stereo not drawn) [Example 56] | 1000 to 20000 nM |  | 0.03 to 0.15 µM |  |  |  |  |
| O=C1CCC(N2C(=O)c3cccc(NCc4cnc(-c5cccc(F)c5)o4)c3C2=O)C(=O)N1 (stereo not drawn) [Example 70, 2-(2,6-Dioxopiperidin-3-yl)-4-(((2-(3-Fluorophenyl)oxazol-5-yl)methyl)amino)isoindolin-1,3-dione] | 1000 to 20000 nM |  | 0.015 to 0.03 µM |  |  |  |  |
| O=C1CCC(N2C(=O)c3cccc(NCc4cnc(-c5cc(Cl)cc(Cl)c5)o4)c3C2=O)C(=O)N1 (stereo not drawn) [Example 75, 4-(((2-(3,5-Dichlorophenyl)oxazol-5-yl)methyl)amino)-2-(2,6-Dioxopiperidin-3-yl)isoindolin-1,3-dione] | < 1000 nM | > 0.12 µM |  |  |  |  |  |
| O=C1CCC(N2C(=O)c3cccc(NCc4cnc(-c5ccc(OC6COC6)cc5)s4)c3C2=O)C(=O)N1 (stereo not drawn) [Example 102] | 1000 to 20000 nM |  | 0.03 to 0.15 µM |  |  |  |  |
| O=C1CCC(N2C(=O)c3cccc(NCc4cnc(-c5cccc(OC(F)(F)F)c5)o4)c3C2=O)C(=O)N1 (stereo not drawn) [Example 55] | < 1000 nM |  | 0.015 to 0.03 µM |  |  |  |  |
| O=C1CCC(N2C(=O)c3cccc(NCc4cnc(-c5ccccc5OC5COC5)o4)c3C2=O)C(=O)N1 (stereo not drawn) [Example 101] | 1000 to 20000 nM |  |  |  |  |  |  |
| Cc1nc2cccc(N)c2c(=O)n1C1CCC(=O)NC1=O (stereo not drawn) [CC-122, reference compound] |  |  |  |  |  |  | > 20000 nM |
